In patent US9834530B2, “3-furyl-2-cyano-2-acrylamide derivative, preparation method therefor, pharmaceutical composition and use thereof” (JENKEM TECHNOLOGY CO., LTD. (BEIJING), priority 2013, dated 2017):

Legend:
[1] = system: AD fruit flies (elav/Y; UAS-Aβ42/+; P35*H29.3); assay: Pavlovian olfactory learning test in AD fruit flies (anti-senile dementia effect); type: in vivo; settings: for PI (mean value), learning and memory index: AD flies (P35*H29.3) given drug, final concentration 100 μM, 50 μl, day 2 to day 8, immediate memory tested day 9, PI=0 no memory, PI=100 all remember; for anti-senile dementia effect (in words, from Table 1): AD flies, T test against AD flies without administration: P>0.05, P<0.05 or P<0.01; for anti-senile dementia effect compared with JKF-006, JKF-027 and JKF-011: transgenic AD fruit flies, comparison with compounds of WO2012/103282
Experimental: In all tests, w^1118 (isoCJ1) was used as a control gene system, referred to as the “2U”. Progeny fruit flies with disease carrying P35 and H29.3 were obtained by integration of fruit flies carrying elav-GAL4^c155 (referred to as P35) and fruit flies carrying Aβ42 (UAS-Aβ42; referred to as H29.3). The first generation of fruit flies obtained by hybridization was used for behavioral testing. Details as follows:
All the fruit flies were reared in an environment with a temperature of 24° C., relative humidity of 40% RH. On the first day, newborn male 2U*H29.3 fruit flies and male AD fruit flies were picked out and put into glass bottles (there were about 120 fruit flies in each bottle). During administration period, these fruit flies were placed in an environment with a temperature of 28° C., relative humidity of 42% RH. From the second day to the eighth day, the fruit flies were transferred into new glass bottles 4 hours later after administration. All the fruit flies were placed in an environment with a temperature of 28° C., relative humidity of 42% RH until 1 hour before Pavlovian olfactory learning test.
On the first day of eclosion dispensation of drugs was conducted, the second day administration was carried out. The respective initial amount of compounds JK-01A, JK-03A, JK-05A, JK-06A and JK-07A was 10 mg, and the final concentration was 100 μM. Each group had two glass bottles of flies which were administered 50 μl within seven days (from the second day to the eighth day). During administration period, since some fruit flies died naturally or for other causes, about 100 flies were remained in each bottle when Pavlovian olfactory test was conducted on the ninth day.
The fruit flies were placed on the automatic training device for training. In training, a group of about 100 flies first contacted with one kind of odor (octanol or methyl cyclohexanol) accompanied by electric shocks (an electric shock of 60 V for 3.5 s at 1.5-s intervals) for 60 s, rested at 45-s intervals, and then contacted with another kind of odor (methyl cyclohexanol or octanol) without electric shocks for 60 s. To test the “immediate memory” (also called “learning”), flies after the training were immediately sent to the T-maze choice point, and allowed to choose between two kinds of odor, the learning and memory index PI (Performance index) in every test was calculated according to the number of flies choosing each kind of odor. PI=0 represented 50:50, meaning that fruit flies could not remember the odor accompanied by electric shocks, PI=100 represented that 100% of the flies remembered the odor accompanied by electric shocks. Learning test was carried out in a darkroom with a temperature of 25° C., relative humidity of 70% RH. The fruit flies entered the darkroom to be familiar with the environment 1 hour before test.
The test data was analyzed and plotted by employing GraphPad Prism.
In the activity test, the olfactory short-term memory impairment tests of healthy flies with the same genetic background and without administration, AD flies without administration, AD flies administrated positive or negative control drugs and AD flies administrated test drugs were carried out at the same time, their learning and memory indexes were calculated, and the learning and memory index of AD flies administrated test drugs was compared with those of healthy flies with the same genetic background, AD flies, AD flies administrated positive or negative control drugs to evaluate the anti-senile dementia effect of test compounds. A relatively higher learning and memory index of AD flies administrated test drugs represented a stronger anti-senile dementia effect of test compounds. […]

ICR mice = assay: Preliminary acute toxicity test; type: in vivo; settings: given twice 3 hours apart, 14 days observation
Experimental: Method: in the acute toxicity test, ICR mice were used and divided into six groups for administration, with 10 mice in each group and half male and half female. […] The control group was administrated the same volume of vehicle. Observation was conducted for 14 consecutive days after administration.

Row | SMILES | PI (mean value), learning and memory index [1] | anti-senile dementia effect (in words, from Table 1) [1] | Test result (acute toxicity) (ICR mice; 4000 mg/kg/d p.o.) | anti-senile dementia effect compared with JKF-006, JKF-027 and JKF-011 [1] | Test result (acute toxicity) (ICR mice; 6000 mg/kg/d p.o.) | Test result (acute toxicity) (ICR mice; 5000 mg/kg/d p.o.)
1 | CC(/C=C/C=C(\C)C(=O)O)=C\C=C\C=C(C)\C=C\C=C(/C)C(=O)O [Crocetin, reference compound] | 40 | equivalent anti-senile dementia effects | – | – | – | –
2 | Cc1nc(Nc2ncc(C(=O)Nc3c(C)cccc3Cl)s2)cc(N2CCN(CCO)CC2)n1 [Dasatinib, reference compound] | 56 | – | – | – | – | –
3 | C#Cc1cccc(Nc2ncnc3cc(OCCOC)c(OCCOC)cc23)c1 [Erlotinib, reference compound] | 48 | had anti-senile dementia effects | – | – | – | –
4 | N#C/C(=C/c1ccc(CO)o1)C(=O)Nc1ccc(F)cc1 [JK-01A, 2-cyano-N-(4-fluorophenyl)-3-(5-hydroxymethyl-2-furyl)-2-acrylamide] | 65 | significant anti-senile dementia effects | No death, | more significant anti-senile dementia effects | – | –
5 | N#C/C(=C\c1ccc(CO)o1)C(=O)NCCc1c[nH]c2ccccc12 [JK-03A, 2-cyano-N-[2-(1H-indol-3-yl)ethyl]-3-(5-hydroxymethyl-2-furyl)-2-acrylamide] | 56 | significant anti-senile dementia effects | – | more significant anti-senile dementia effects | No death, | –
6 | N#C/C(=C\c1ccc(NCCOCCO)o1)C(=O)NCCc1c[nH]c2ccccc12 [JK-05A, 2-cyano-N-[2-(1H-3-indolyl)ethyl]-3-{5-[2-(2-hydroxyethoxy)ethylamino]-2-furyl}-2-acrylamide] | 40 | equivalent anti-senile dementia effects | – | – | – | No death,
7 | COCCOCCOCc1ccc(/C=C(\C#N)C(=O)Nc2ccc(F)cc2)o1 [JK-06A, 2-cyano-N-(4-fluorophenyl)-3-[5-(2,5,8-trioxa-nonyl-1-yl)furan-2-yl]-2-acrylamide] | 67 | significant anti-senile dementia effects | – | more significant anti-senile dementia effects | No death, | –
8 | N#CC(=Cc1ccc(COCCOCCOCCO)o1)C(=O)NCCc1c[nH]c2ccccc12 [JK-07A, 2-cyano-N-[2-(1H-3-indolyl)ethyl]-3-[5-(1,4,7,10-tetraoxa-undecane-11-yl)furan-2-yl]-2-acrylamide] | 58 | significant anti-senile dementia effects | No death, | more significant anti-senile dementia effects | – | –
9 | N#C/C(=C\c1ccc(-c2cc(C(=O)O)ccc2Cl)o1)C(=O)Nc1ccc(F)cc1 [JKF-006, reference compound] | 37 | equivalent anti-senile dementia effects | – | – | – | –
10 | N#C/C(=C\c1ccc(N2CCOCC2)o1)C(=O)NCCc1c[nH]c2ccccc12 [JKF-027, reference compound] | 54 | had anti-senile dementia effects | – | – | – | –
